Several values for one entry are separate records, joined by “and”; a condition that tells them apart may be missing. Identical values can stand only once.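 These data come from cells grown in 96-well plates and exposed to compound for 48 hours at five concentrations. GI50 marks 50% less growth. TGI marks complete inhibition of growth.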
Tests used:
Assay in all cases: NCI anticancer screen, dose series, 48 h
786-0 renal = tested on: 786-0 renal
A498 renal = tested on: A498 renal
A549 NSCLC = tested on: A549 NSCLC
ACHN renal = tested on: ACHN renal
BT-549 breast = tested on: BT-549 breast
CAKI-1 renal = tested on: CAKI-1 renal
CCRF-CEM leukemia = tested on: CCRF-CEM leukemia
COLO 205 colon = tested on: COLO 205 colon
DU-145 prostate = tested on: DU-145 prostate
EKVX NSCLC = tested on: EKVX NSCLC
HCC-2998 colon = tested on: HCC-2998 colon
HCT-116 colon = tested on: HCT-116 colon
HCT-15 colon = tested on: HCT-15 colon
HL-60(TB) leukemia = tested on: HL-60(TB) leukemia
HOP-62 NSCLC = tested on: HOP-62 NSCLC
HOP-92 NSCLC = tested on: HOP-92 NSCLC
HS 578T breast = tested on: HS 578T breast
HT29 colon = tested on: HT29 colon
IGROV1 ovarian = tested on: IGROV1 ovarian
K-562 leukemia = tested on: K-562 leukemia
KM12 colon = tested on: KM12 colon
LOX IMVI melanoma = tested on: LOX IMVI melanoma
M14 melanoma = tested on: M14 melanoma
MALME-3M melanoma = tested on: MALME-3M melanoma
MCF7 breast = tested on: MCF7 breast
MDA-MB-231 breast = tested on: MDA-MB-231 breast
MDA-MB-435 = tested on: MDA-MB-435
MOLT-4 leukemia = tested on: MOLT-4 leukemia
NCI-H226 lung = tested on: NCI-H226 lung
NCI-H23 lung = tested on: NCI-H23 lung
NCI-H460 lung = tested on: NCI-H460 lung
NCI-H522 lung = tested on: NCI-H522 lung
NCI/ADR-RES ovarian = tested on: NCI/ADR-RES ovarian
OVCAR-3 ovarian = tested on: OVCAR-3 ovarian
OVCAR-4 ovarian = tested on: OVCAR-4 ovarian
OVCAR-5 ovarian = tested on: OVCAR-5 ovarian
OVCAR-8 ovarian = tested on: OVCAR-8 ovarian
PC-3 prostate = tested on: PC-3 prostate
RPMI-8226 leukemia = tested on: RPMI-8226 leukemia
RXF 393 renal = tested on: RXF 393 renal
SF-268 CNS = tested on: SF-268 CNS
SF-295 CNS = tested on: SF-295 CNS
SF-539 CNS = tested on: SF-539 CNS
SK-MEL-2 melanoma = tested on: SK-MEL-2 melanoma
SK-MEL-28 melanoma = tested on: SK-MEL-28 melanoma
SK-MEL-5 melanoma = tested on: SK-MEL-5 melanoma
SK-OV-3 ovarian = tested on: SK-OV-3 ovarian
SN12C renal = tested on: SN12C renal
SNB-19 CNS = tested on: SNB-19 CNS
SNB-75 CNS = tested on: SNB-75 CNS
SR leukemia = tested on: SR leukemia
SW-620 colon = tested on: SW-620 colon
T-47D breast = tested on: T-47D breast
TK-10 renal = tested on: TK-10 renal
U251 CNS = tested on: U251 CNS
UACC-257 melanoma = tested on: UACC-257 melanoma
UACC-62 melanoma = tested on: UACC-62 melanoma
UO-31 renal = tested on: UO-31 renal

Cn1cnc2c(F)c(Nc3ccc(Br)cc3Cl)c(C(=O)NOCCO)cc21
GI50 (786-0 renal): > 10 µM and 60.6 µM
TGI (786-0 renal): > 100 µM
GI50 (A498 renal): 0.103 µM and 0.16 µM
TGI (A498 renal): 1.86 µM and 4.1 µM
GI50 (A549 NSCLC): 6.85 µM and 10.8 µM
TGI (A549 NSCLC): > 100 µM
GI50 (ACHN renal): 9.92 µM and 29 µM
TGI (ACHN renal): > 100 µM
GI50 (BT-549 breast): > 10 µM and 30 µM
TGI (BT-549 breast): > 100 µM
GI50 (CAKI-1 renal): > 2.6 µM and 17.9 µM
TGI (CAKI-1 renal): > 100 µM
GI50 (CCRF-CEM leukemia): > 94.6 µM
TGI (CCRF-CEM leukemia): > 100 µM
GI50 (COLO 205 colon): 0.0211 µM and < 0.0137 µM
TGI (COLO 205 colon): > 15.1 µM
GI50 (DU-145 prostate): > 10 µM and 74.6 µM
TGI (DU-145 prostate): > 100 µM
GI50 (EKVX NSCLC): 0.734 µM and 3.88 µM
TGI (EKVX NSCLC): > 100 µM
GI50 (HCC-2998 colon): 0.0213 µM and < 0.0171 µM
TGI (HCC-2998 colon): > 10 µM and 2.77 µM
GI50 (HCT-116 colon): 0.648 µM and 1.07 µM
TGI (HCT-116 colon): > 100 µM
GI50 (HCT-15 colon): > 10 µM and 40.5 µM
TGI (HCT-15 colon): > 100 µM
GI50 (HL-60(TB) leukemia): 0.0218 µM
TGI (HL-60(TB) leukemia): > 10 µM and 5.35 µM
GI50 (HOP-62 NSCLC): 0.399 µM and 0.232 µM
TGI (HOP-62 NSCLC): > 100 µM
GI50 (HOP-92 NSCLC): 0.197 µM and 0.235 µM
TGI (HOP-92 NSCLC): 6.14 µM and 8.67 µM
GI50 (HS 578T breast): > 10 µM and 32.5 µM
TGI (HS 578T breast): > 100 µM
GI50 (HT29 colon): 0.0278 µM and 0.0265 µM
TGI (HT29 colon): > 100 µM
GI50 (IGROV1 ovarian): 0.264 µM and 1.34 µM
TGI (IGROV1 ovarian): > 100 µM
GI50 (K-562 leukemia): > 10 µM and 12.3 µM
TGI (K-562 leukemia): > 100 µM
GI50 (KM12 colon): 0.685 µM and 0.847 µM
TGI (KM12 colon): > 100 µM
GI50 (LOX IMVI melanoma): 1.26 µM and 1.45 µM
TGI (LOX IMVI melanoma): > 80.9 µM
GI50 (M14 melanoma): 0.0271 µM and < 0.0144 µM
TGI (M14 melanoma): > 6.91 µM and 4.53 µM
GI50 (MALME-3M melanoma): < 0.0187 µM
TGI (MALME-3M melanoma): 0.018 µM
GI50 (MCF7 breast): > 100 µM
TGI (MCF7 breast): > 100 µM
GI50 (MDA-MB-231 breast): 0.822 µM and 1.94 µM
TGI (MDA-MB-231 breast): > 100 µM
GI50 (MDA-MB-435): 0.0709 µM and 0.0294 µM
TGI (MDA-MB-435): > 100 µM
GI50 (MOLT-4 leukemia): > 10 µM and 62.2 µM
TGI (MOLT-4 leukemia): > 100 µM
GI50 (NCI-H226 lung): > 10 µM and 23.9 µM
TGI (NCI-H226 lung): > 100 µM
GI50 (NCI-H23 lung): 0.74 µM and 1.04 µM
TGI (NCI-H23 lung): > 100 µM
GI50 (NCI-H460 lung): > 10 µM and 32.3 µM
TGI (NCI-H460 lung): > 100 µM
GI50 (NCI-H522 lung): > 10 µM and 61.3 µM
TGI (NCI-H522 lung): > 100 µM
GI50 (NCI/ADR-RES ovarian): > 100 µM
TGI (NCI/ADR-RES ovarian): > 100 µM
GI50 (OVCAR-3 ovarian): > 10 µM and 62.9 µM
TGI (OVCAR-3 ovarian): > 100 µM
GI50 (OVCAR-4 ovarian): > 10 µM and 22.7 µM
TGI (OVCAR-4 ovarian): > 100 µM
TGI (OVCAR-5 ovarian): > 100 µM
GI50 (OVCAR-8 ovarian): > 10 µM and 67.9 µM
TGI (OVCAR-8 ovarian): > 100 µM
GI50 (PC-3 prostate): > 100 µM
TGI (PC-3 prostate): > 100 µM
GI50 (RPMI-8226 leukemia): > 10 µM and 28.2 µM
TGI (RPMI-8226 leukemia): > 100 µM
GI50 (RXF 393 renal): 1.9 µM and 9.28 µM
TGI (RXF 393 renal): > 10 µM and 78 µM
GI50 (SF-268 CNS): > 10 µM and 60.5 µM
TGI (SF-268 CNS): > 100 µM
GI50 (SF-295 CNS): > 10 µM and 67.2 µM
TGI (SF-295 CNS): > 100 µM
GI50 (SF-539 CNS): > 10 µM and 22.4 µM
TGI (SF-539 CNS): > 100 µM
GI50 (SK-MEL-2 melanoma): 0.0262 µM and < 0.0122 µM
TGI (SK-MEL-2 melanoma): 0.78 µM and 0.565 µM
GI50 (SK-MEL-28 melanoma): 0.0269 µM and 0.0268 µM
TGI (SK-MEL-28 melanoma): > 2.81 µM and 2.52 µM
GI50 (SK-MEL-5 melanoma): 2.4 µM and 0.95 µM
TGI (SK-MEL-5 melanoma): > 100 µM
GI50 (SK-OV-3 ovarian): > 10 µM and 63.4 µM
TGI (SK-OV-3 ovarian): > 100 µM
GI50 (SN12C renal): > 10 µM and 47.6 µM
TGI (SN12C renal): > 100 µM
GI50 (SNB-19 CNS): > 10 µM and 40.4 µM
TGI (SNB-19 CNS): > 100 µM
GI50 (SNB-75 CNS): > 10 µM and 60.4 µM
TGI (SNB-75 CNS): > 100 µM
GI50 (SR leukemia): > 10 µM and 5.85 µM
TGI (SR leukemia): > 33.8 µM
GI50 (SW-620 colon): 0.0436 µM and 0.0226 µM
TGI (SW-620 colon): > 100 µM
GI50 (T-47D breast): > 10 µM and 82.4 µM
TGI (T-47D breast): > 100 µM
GI50 (TK-10 renal): 0.183 µM and 1.62 µM
TGI (TK-10 renal): > 100 µM
GI50 (U251 CNS): > 8.16 µM and 30.1 µM
TGI (U251 CNS): > 100 µM
GI50 (UACC-257 melanoma): 0.0212 µM and < 0.0177 µM
TGI (UACC-257 melanoma): 0.207 µM and 0.0755 µM
GI50 (UACC-62 melanoma): 0.0123 µM and 0.0212 µM
GI50 (UO-31 renal): 1.45 µM and 3.38 µM
TGI (UO-31 renal): > 66 µM
